We go through 1 molecule from patent US8673949B2 (Bristol-Myers Squibb Company, priority 2008, dated 2014).

The test system of experiment [1] is Tg4510 mice. The experiment is described as follows: Morris water maze (MWM) in Tg4510 mice. To be noted: vs vehicle; for MWM acquisition: locating the hidden platform: tested at 4.5 months; for MWM probe trial % pathlength in target quadrant / MWM probe trial number of platform crossings: probe 18 h after 5 days of training.
Protocol: A 10× stock solution was made in 100% ethanol, and diluted just before dosing. Mice were dosed in 3 cohorts and data were combined to give a final N of 12, 9, and 15 for the vehicle, 1 mpk, and 10 mpk groups, respectively. Mice were dosed in a chemical fume hood.
Tg4510 mice were used in this study. […] At 9 weeks (+/−15 days) of age, mice were acclimated to handling with a single mock injection of phosphate buffered saline, performed within a chemical fume hood. The mice were then housed in cages kept within the chemical fume hood for 48 hours. Following the 48-hour period, the mice were transferred to clean cages and brought to a behavioral suite for testing.
Mice were again tested in the MWM after the eighth dose (19 weeks of age+/−15 days) for six days. After behavioral testing, dosing resumed until the animals were 5.5 months of age at the time of harvest.
Mice were tested in Morris water maze (MWM) on two occasions, once prior to dosing, and once two months after dosing began. The second round of water maze testing was performed in another testing room. Mice were acclimated to the experimental room for 2-3 days prior to testing. The mice were placed in a water maze of 1.5 m diameter, with a 16 cm diameter platform placed 0.5-1.0 cm under the surface of the water. The water was made opaque with non-toxic white paint and the water temperature was regulated between 22-25° C.
The mice were given 4 trials per day of up to 90 seconds each with a 10 second rest period on the platform after each trial. […] The testing room rooms each had large external cues to allow the mice to orient as they learned the location of the platform. Mice were placed under a heat lamp to prevent hypothermia after each trial. The interval between trials ranged from 25 to 45 minutes. The mice were tracked using HVS Image Advanced Tracker VP200 software (Buckingham, UK) and the total distance traveled until reaching of the platform was determined.
Statistical analysis for acquisition path length from the five trials involved a repeated measures analysis of variance. […] If the analysis indicated a significant effect of treatment, or a treatment-by-trial interaction, differences between the 1 mpk and 10 mpk groups were compared to the vehicle group using Dunnett's test. The probe pathlengths in each quadrant, and number of platform crossings in each quadrant, were analyzed using Dunnett's test. In all cases, 1 mpk and 10 mpk groups were compared to the vehicle group. All calculations were done in SAS, version 9.1, under the Windows XP Professional operating system.
For experiment [2], the system named is Tg4510 mice. The experiment is described as follows: Neuronal counts in CA1 and CA3 regions of hippocampus (stereology) in Tg4510 mice. Type of experiment: in vivo, mouse. To be noted: Tg4510 mice at 5.5 months. The method, then: Mice were euthanized by cervical dislocation at 5. 5 months followed by decapitation. Brains were immediately removed and divided down the midline into two hemispheres. The right hemisphere was placed into 20 mL of 4% paraformaldehyde (prepared fresh on the day of sacrifice) and stored overnight at 4° C. The following day, the brains were transferred to a tube containing 20 mL TBS (pH 7.4, 20 mM TRIS, 100 mM NaCl) and then stored at 4° C. until processing. Right hemispheres were embedded in paraffin, sectioned at 5 microns, and mounted on positively charged glass slides. The slides were dried overnight in a 60° C. oven and stored at room temperature until stained. The left hemispheres were frozen (within 2 minutes) on dry ice.
Nissl stained slides were scanned and digitized using the Aperio ScanScope (Aperio Technologies, Inc., Vista, Calif.). Images of the entire brain section were captured at high resolution and stored as files within Spectrum (Aperio software). To process images, a region of 4,000×4,000 pixels including the entire hippocampus was captured using the extract tool and saved as a JPEG file for importing into Metamorph (Molecular Devices, Sunnyvale, Calif.) for quantification of cell loss within the CA1 and CA3 regions of the hippocampus. A modified version of the single section dissector method (Moller et al. 1990) was utilized to quantify cell loss because of its suitability for thin, paraffin-embedded tissue sections. To obtain relative numbers of cells, every fifth section was collected as the paraffin-embedded brains were cut sagitally between the Bregma and approximately 0.75 mm laterally. Three regions were drawn and counted per section using Metamorph software. The same regions were used for every image and 5 sections were counted per animal, 5 slides apart. Statistics were performed using ANOVA followed by Dunnett's post-hoc test.
Previous studies had shown that Tg4510 mice lost about 60% of their neurons in the CA1 region of the hippocampus at 5.5 months (Santacruz et al. 2005). […]

Each structure is given as a SMILES string.

Take `C/C1=C/C[C@@H](/C(C)=C/c2csc(C)n2)OC(=O)C[C@H](O)C(C)(C)C(=O)[C@H](C)[C@@H](O)[C@@H](C)CCC1` [Epothilone D, epothilone D]: the “MWM acquisition: locating the hidden platform” value with Tg4510 mice [1] (1 mpk IP once weekly, p<0.01) is reported as “able to locate the hidden platform in the MWM more quickly”; in the experiment with Tg4510 mice [1] (10 mpk IP once weekly), “trend toward improvement”. Besides, the “MWM probe trial % pathlength in target quadrant” value in the experiment with Tg4510 mice [1] (1 mpk IP weekly for 2 months) was “statistically significant differences in both measures as compared with the vehicle group”; in the experiment with Tg4510 mice [1] (10 mpk IP weekly for 2 months) it was “significantly greater performance compared to the vehicle group”. Besides, the “MWM probe trial number of platform crossings” value with Tg4510 mice [1] (1 mpk IP weekly for 2 months) is listed as “statistically significant differences in both measures as compared with the vehicle group”; with Tg4510 mice [1] (10 mpk IP weekly for 2 months) it was “not when using the number of platform crossings measure”. In the experiment on Tg4510 mice [2] (1 mpk IP weekly, vs vehicle), the “CA3 total cell count” value was “significant differences between the 1 mpk and non-transgenic mice compared to vehicle treated mice”. Besides, the CA1 neuronal count result is “substantially more CA1 neurons than vehicle-treated animals” with Tg4510 mice [2] (1 mpk IP weekly, vs vehicle, p<0.01); “intermediate between the vehicle-treated mice and the mice treated with 1 mpk” in the experiment on Tg4510 mice [2] (10 mpk IP weekly).
